Experimental data as given in ChEMBL document CHEMBL1221281, “Discovery of 2-(4-((1H-1,2,4-triazol-1-yl)methyl)-5-(4-bromophenyl)-1-(2-chlorophenyl)-1H-pyrazol-3-yl)-5-tert-butyl-1,3,4-thiadiazole (GCC2680) as a potent, selective and orally efficacious cannabinoid-1 receptor antagonist” (Bioorg Med Chem, 2010).

What was measured:
[1] = system: Mus musculus; assay: Antiobesity activity in diet-induced obesity C57BL/6 mouse model assessed as reduction of body weight at 10 mg/kg, po qd for 14 days; assay type: functional; set-up: scale not given: the % may be the effect or the level left
[2] = molecular target: Cannabinoid receptor 1 (Rattus norvegicus, UniProt P20272)
Chain of Cannabinoid receptor 1 (P20272 whole entry): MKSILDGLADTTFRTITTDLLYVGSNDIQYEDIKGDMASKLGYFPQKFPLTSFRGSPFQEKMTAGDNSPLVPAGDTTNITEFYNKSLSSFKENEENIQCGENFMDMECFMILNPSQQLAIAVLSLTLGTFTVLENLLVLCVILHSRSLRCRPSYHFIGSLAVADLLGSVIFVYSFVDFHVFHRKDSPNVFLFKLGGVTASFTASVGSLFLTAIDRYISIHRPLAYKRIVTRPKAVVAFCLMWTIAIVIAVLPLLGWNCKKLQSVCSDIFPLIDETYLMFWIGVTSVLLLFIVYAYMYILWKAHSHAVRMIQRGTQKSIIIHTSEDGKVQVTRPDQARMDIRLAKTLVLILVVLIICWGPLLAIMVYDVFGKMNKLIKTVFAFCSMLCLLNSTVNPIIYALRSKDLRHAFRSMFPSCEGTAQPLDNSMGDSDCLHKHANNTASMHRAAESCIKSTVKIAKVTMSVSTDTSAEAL
Description: Displacement of [3H]CP-55940 from CB1 receptor in Sprague-Dawley rat cerebellum after 1 hr by liquid scintillation counting

[3] = molecular target: Cannabinoid receptor 2 (Homo sapiens, UniProt P34972); assay: Displacement of [3H]WIN-55212-2 from human CB2 receptor expressed in CHO-K1 cells after 1 hr by liquid scintillation counting; assay type: cell-based
Chain of Cannabinoid receptor 2 (P34972 whole entry): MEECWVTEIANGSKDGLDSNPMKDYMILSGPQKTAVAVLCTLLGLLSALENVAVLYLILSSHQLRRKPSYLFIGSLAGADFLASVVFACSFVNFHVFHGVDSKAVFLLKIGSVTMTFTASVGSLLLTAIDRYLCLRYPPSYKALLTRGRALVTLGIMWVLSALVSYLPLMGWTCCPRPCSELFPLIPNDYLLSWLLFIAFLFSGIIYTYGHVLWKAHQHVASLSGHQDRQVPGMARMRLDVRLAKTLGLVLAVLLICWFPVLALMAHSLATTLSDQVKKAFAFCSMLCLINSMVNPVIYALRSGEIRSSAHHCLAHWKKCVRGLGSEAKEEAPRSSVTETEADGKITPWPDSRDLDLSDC

[4] = Selectivity ratio of IC50 for human CB2 receptor to IC50 for CB1 receptor in Sprague-Dawley rat cerebellum; assay type: tissue-based
[5] = molecular target: T1, Cytochrome P450 1A2 (Homo sapiens, UniProt P05177); assay: Inhibition of CYP1A2 in human liver microsomes after 30 mins; assay type: ADME, Microsome
T1 sequence (P05177 whole entry): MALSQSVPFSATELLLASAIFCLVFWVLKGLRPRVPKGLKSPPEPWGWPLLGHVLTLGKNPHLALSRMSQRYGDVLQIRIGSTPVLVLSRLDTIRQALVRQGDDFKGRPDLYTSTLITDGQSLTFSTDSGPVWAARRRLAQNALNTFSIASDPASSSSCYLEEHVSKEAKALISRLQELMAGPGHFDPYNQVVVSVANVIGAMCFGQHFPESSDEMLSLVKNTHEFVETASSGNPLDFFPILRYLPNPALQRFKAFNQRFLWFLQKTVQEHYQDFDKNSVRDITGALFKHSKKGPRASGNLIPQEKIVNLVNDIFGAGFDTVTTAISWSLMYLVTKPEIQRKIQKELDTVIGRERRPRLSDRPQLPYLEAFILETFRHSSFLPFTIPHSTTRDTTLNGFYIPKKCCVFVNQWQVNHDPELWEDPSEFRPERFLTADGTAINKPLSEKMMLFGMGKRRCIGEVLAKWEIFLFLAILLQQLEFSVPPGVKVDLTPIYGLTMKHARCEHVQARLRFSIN

[6] = molecular target: Cytochrome P450 2C9 (Homo sapiens, UniProt P11712); assay: Inhibition of CYP2C9 in human liver microsomes after 30 mins; assay type: ADME, Microsome
Chain of Cytochrome P450 2C9 (P11712 whole entry): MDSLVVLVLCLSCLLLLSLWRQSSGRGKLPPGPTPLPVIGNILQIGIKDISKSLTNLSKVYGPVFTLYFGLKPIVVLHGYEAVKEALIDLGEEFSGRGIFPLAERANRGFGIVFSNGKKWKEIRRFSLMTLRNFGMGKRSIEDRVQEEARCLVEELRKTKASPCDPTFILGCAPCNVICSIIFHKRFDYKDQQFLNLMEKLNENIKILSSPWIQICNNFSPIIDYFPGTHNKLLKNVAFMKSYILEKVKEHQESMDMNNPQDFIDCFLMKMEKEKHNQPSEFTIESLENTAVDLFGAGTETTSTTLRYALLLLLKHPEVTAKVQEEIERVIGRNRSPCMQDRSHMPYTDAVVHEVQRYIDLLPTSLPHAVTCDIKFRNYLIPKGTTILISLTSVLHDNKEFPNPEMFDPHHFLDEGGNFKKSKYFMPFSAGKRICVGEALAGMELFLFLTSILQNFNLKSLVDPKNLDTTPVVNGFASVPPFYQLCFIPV

[7] = molecular target: Cytochrome P450 3A4 (Homo sapiens, UniProt P08684); assay: Inhibition of CYP3A4 in human liver microsomes after 30 mins; assay type: ADME, Microsome
Chain of Cytochrome P450 3A4 (P08684 whole entry): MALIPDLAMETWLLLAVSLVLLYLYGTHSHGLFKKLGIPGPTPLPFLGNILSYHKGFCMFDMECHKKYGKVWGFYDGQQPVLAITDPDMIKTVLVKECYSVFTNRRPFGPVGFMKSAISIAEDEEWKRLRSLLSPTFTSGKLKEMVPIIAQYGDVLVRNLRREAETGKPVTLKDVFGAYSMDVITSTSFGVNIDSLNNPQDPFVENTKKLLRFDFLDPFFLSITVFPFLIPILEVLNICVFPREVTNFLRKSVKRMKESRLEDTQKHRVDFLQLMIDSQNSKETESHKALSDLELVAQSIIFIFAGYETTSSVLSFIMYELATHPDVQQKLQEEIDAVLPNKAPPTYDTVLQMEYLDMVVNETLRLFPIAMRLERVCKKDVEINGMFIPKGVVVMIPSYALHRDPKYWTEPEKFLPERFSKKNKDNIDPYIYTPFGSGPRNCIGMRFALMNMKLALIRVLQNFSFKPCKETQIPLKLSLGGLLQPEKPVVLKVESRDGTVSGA

[8] = system: Nucleic Acid; assay: Induction of DNA damage up to 50 uM after 2 hrs by comet assay; assay type: nucleic-acid assay
[9] = molecular target: Cytochrome P450 2D6 (Homo sapiens, UniProt P10635); assay: Inhibition of CYP2D6 in human liver microsomes after 30 mins; assay type: ADME, Microsome
Chain of Cytochrome P450 2D6 (P10635 whole entry): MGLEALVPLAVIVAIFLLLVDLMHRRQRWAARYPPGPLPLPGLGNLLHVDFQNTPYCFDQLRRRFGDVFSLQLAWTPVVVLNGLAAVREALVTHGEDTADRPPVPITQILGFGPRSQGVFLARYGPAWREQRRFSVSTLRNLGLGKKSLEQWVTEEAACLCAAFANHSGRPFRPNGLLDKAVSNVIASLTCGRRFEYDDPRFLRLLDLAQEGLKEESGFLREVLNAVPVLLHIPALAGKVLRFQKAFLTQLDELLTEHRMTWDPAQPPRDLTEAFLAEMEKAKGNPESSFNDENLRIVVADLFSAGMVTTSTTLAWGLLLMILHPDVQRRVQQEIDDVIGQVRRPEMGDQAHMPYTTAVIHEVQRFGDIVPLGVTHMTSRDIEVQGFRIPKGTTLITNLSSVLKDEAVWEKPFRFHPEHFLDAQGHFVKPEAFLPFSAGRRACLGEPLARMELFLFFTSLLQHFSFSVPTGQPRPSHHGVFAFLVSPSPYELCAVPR

[10] = system: Mus musculus; assay: Antiobesity activity in diet-induced obesity C57BL/6 mouse model assessed as reduction of body weight at 3 mg/kg, po qd for 13 days; assay type: functional; set-up: scale not given: the % may be the effect or the level left
[11] = system: Rattus norvegicus; assay: Antiobesity activity in diet-induced obesity Sprague-Dawley rat model assessed as reduction of body weight administered at 10 mg/kg, po qd for 13 days; assay type: functional; set-up: scale not given: the % may be the effect or the level left
[12] = molecular target: Voltage-gated inwardly rectifying potassium channel KCNH2 (Homo sapiens, UniProt Q12809); assay: Inhibition of human ERG at holding potential of -80 mV to +40 mV
Chain of Voltage-gated inwardly rectifying potassium channel KCNH2 (Q12809 whole entry): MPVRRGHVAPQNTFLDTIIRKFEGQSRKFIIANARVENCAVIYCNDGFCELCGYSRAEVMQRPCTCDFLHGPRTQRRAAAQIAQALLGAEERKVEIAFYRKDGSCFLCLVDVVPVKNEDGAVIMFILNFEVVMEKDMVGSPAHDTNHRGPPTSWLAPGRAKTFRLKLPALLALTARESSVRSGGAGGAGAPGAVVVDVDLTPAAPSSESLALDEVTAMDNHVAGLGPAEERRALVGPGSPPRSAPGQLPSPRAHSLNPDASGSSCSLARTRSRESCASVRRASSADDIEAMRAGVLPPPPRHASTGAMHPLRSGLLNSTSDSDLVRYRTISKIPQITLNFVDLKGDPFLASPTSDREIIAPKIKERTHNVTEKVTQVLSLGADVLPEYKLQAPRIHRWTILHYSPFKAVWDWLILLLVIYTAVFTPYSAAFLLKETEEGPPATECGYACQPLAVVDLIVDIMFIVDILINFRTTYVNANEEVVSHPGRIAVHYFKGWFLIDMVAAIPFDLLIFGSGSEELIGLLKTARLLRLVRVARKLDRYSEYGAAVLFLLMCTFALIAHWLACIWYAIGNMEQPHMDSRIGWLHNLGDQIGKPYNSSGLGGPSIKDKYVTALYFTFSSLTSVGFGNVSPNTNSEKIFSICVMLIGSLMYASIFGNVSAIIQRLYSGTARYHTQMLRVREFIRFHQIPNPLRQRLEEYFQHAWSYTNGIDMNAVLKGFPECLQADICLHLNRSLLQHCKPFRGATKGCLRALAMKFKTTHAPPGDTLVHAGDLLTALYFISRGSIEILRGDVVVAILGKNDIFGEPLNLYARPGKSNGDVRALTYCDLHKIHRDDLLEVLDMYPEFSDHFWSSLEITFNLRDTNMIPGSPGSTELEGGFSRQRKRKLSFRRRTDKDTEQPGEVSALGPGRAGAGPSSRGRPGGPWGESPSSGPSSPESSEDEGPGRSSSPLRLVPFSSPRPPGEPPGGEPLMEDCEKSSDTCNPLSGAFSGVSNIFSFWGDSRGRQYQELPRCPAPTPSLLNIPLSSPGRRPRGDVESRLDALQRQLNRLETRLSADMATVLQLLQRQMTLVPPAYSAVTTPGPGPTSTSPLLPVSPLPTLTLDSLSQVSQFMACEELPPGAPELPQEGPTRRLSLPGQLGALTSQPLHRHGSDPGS

[13] = Mutagenic activity in Salmonella Typhimurium TA100 assessed as number of spontaneous and drug-induced revertants after 48 hrs by Ames test; assay type: toxicity; conditions: salmonella enterica subsp. enterica serovar typhimurium
[14] = Cytotoxicity against human HuH7 cells; assay type: cell-based; conditions: Huh-7
[15] = system: Vero; assay: Cytotoxicity against african green monkey Vero cells; assay type: cell-based; conditions: Chlorocebus sabaeus
[16] = system: HCT-116; assay: Cytotoxicity against human HCT116 cells; assay type: cell-based
[17] = system: HEK293; assay: Cytotoxicity against human HEK293 cells; assay type: cell-based
[18] = Tmax in Sprague-Dawley rat at 5 mg/kg, po; assay type: ADME, organism-based; set-up: dose 5 mg/kg, route oral; conditions: in vivo
[19] = Cmax in Sprague-Dawley rat at 5 mg/kg, po; assay type: ADME, organism-based; set-up: dose 5 mg/kg, route oral; conditions: in vivo
[20] = Cmax in Sprague-Dawley rat at 1 mg/kg, iv; assay type: ADME, organism-based; set-up: dose 1 mg/kg, route intravenous; conditions: in vivo
[21] = system: Rattus norvegicus; assay: Clast in Sprague-Dawley rat at 1 mg/kg, iv; assay type: ADME, organism-based; set-up: dose 1 mg/kg, route intravenous; conditions: in vivo
[22] = Half life in Sprague-Dawley rat at 5 mg/kg, po; assay type: ADME, organism-based; set-up: dose 5 mg/kg, route oral; conditions: in vivo
[23] = Half life in Sprague-Dawley rat at 1 mg/kg, iv; assay type: ADME, organism-based; set-up: dose 1 mg/kg, route intravenous; conditions: in vivo
[24] = Clearance in Sprague-Dawley rat at 1 mg/kg, iv; assay type: ADME, organism-based; set-up: dose 1 mg/kg, route intravenous; conditions: in vivo
[25] = system: Rattus norvegicus; assay: AUC (0 to infinity) in Sprague-Dawley rat at 5 mg/kg, po; assay type: ADME, organism-based, Plasma; set-up: time infinity, dose 5 mg/kg, route oral; conditions: in vivo
[26] = system: Rattus norvegicus; assay: AUC (0 to infinity) in Sprague-Dawley rat at 1 mg/kg, iv; assay type: ADME, organism-based, Plasma; set-up: time infinity, dose 1 mg/kg, route intravenous; conditions: in vivo
[27] = Oral bioavailability in Sprague-Dawley rat at 5 mg/kg, po; assay type: ADME, organism-based; conditions: in vivo
[28] = system: Rattus norvegicus; assay: Clast in Sprague-Dawley rat at 5 mg/kg, po; assay type: ADME, organism-based; set-up: dose 5 mg/kg, route oral; conditions: in vivo
[29] = Ratio of drug level in brain to plasma in Sprague-Dawley rat; assay type: ADME

Structure (SMILES) | Activity [1] [%] | IC50 [2] [nM] | IC50 [3] [nM] | Ratio IC50 [4] | further results
CC1(c2nnc(-c3nn(-c4ccc(Cl)cc4Cl)c(-c4ccc(Cl)cc4)c3Cn3cncn3)s2)CC1 | 23.68 | 2.4 | – | – | –
FC(F)(F)C1(c2nnc(-c3nn(-c4ccc(Cl)cc4Cl)c(-c4ccc(Br)cc4)c3Cn3cncn3)s2)CC1 | 23.68 | 0.991 | – | – | –
Clc1ccc(-c2c(Cn3cncn3)c(-c3nnc(C4(c5ccc(Cl)cc5)CC4)s3)nn2-c2ccccc2Cl)cc1 | 23.68 | 0.966 | 265 | 274 | –
CC(C)(C)c1nnc(-c2nn(-c3ccccc3Cl)c(-c3ccc(Cl)cc3)c2Cn2cncn2)s1 | 23.68 | – | – | – | –
FC(F)(F)C1(c2nnc(-c3nn(-c4ccc(Cl)cc4Cl)c(-c4ccc(Cl)cc4)c3Cn3cncn3)s2)CC1 | 23.68 | – | 3630 | 1590 | –
CC(C)(C)c1nnc(-c2nn(-c3ccc(Cl)cc3Cl)c(-c3ccc(Br)cc3)c2Cn2cncn2)s1 | 23.68 | 1.54 | 430 | – | IC50 [5]: 2700 nM; IC50 [6]: 2600 nM; IC50 [7]: > 20000 nM; Activity [8]: Non-toxic; IC50 [9]: > 20000 nM
FC(F)(F)C1(c2nnc(-c3nn(-c4ccccc4Cl)c(-c4ccc(Cl)cc4)c3Cn3cncn3)s2)CCC1 | 23.68 | 1.01 | – | – | –
FC(F)(F)C1(c2nnc(-c3nn(-c4ccc(Cl)cc4Cl)c(-c4ccc(Cl)cc4)c3Cn3cncn3)s2)CCC1 | 23.68 | – | 505 | 175 | Activity [10]: 34.45%; Activity [11]: 14.43%; IC50 [5]: > 20000 nM; IC50 [6]: > 20000 nM; IC50 [7]: > 20000 nM; IC50 [12]: > 10000 nM; Activity [8]: Non-toxic; Activity [13]: Non-toxic; EC50 [14]: > 100000 nM; EC50 [15]: > 100000 nM; EC50 [16]: > 100000 nM; EC50 [17]: > 100000 nM; IC50 [9]: > 20000 nM
Cc1ccc(C2(c3nnc(-c4nn(-c5ccc(Cl)cc5Cl)c(-c5ccc(Br)cc5)c4Cn4cncn4)s3)CC2)cc1 | 23.68 | 2.74 | – | – | –
FC(F)(F)c1ccccc1-n1nc(-c2nnc(C3(C(F)(F)F)CCC3)s2)c(Cn2cncn2)c1-c1ccc(Cl)cc1 | 23.68 | 6.48 | 76.8 | 11.8 | –
Clc1ccc(-c2c(Cn3cncn3)c(-c3nnc(C4(c5ccccc5)CC4)s3)nn2-c2ccc(Cl)cc2Cl)cc1 | 23.68 | – | – | – | –
Cc1c(C(=O)NN2CCCCC2)nn(-c2ccc(Cl)cc2Cl)c1-c1ccc(Cl)cc1 [RIMONABANT] | 18.02 | – | – | – | Activity [11]: 10.61%; Tmax [18]: 0.5 h; Cmax [19]: 290 ng/mL; Cmax [20]: 300 ng/mL; Clast [21]: 10 ng/mL; half-life [22]: 8.23 h; half-life [23]: 3.09 h; clearance [24]: 82.4 mL/min/kg; AUC [25]: 33.4 min/µg/mL; AUC [26]: 12.59 min/µg/mL; bioavailability [27]: 53.1%; IC50 [5]: > 20000 nM; IC50 [7]: > 20000 nM; IC50 [12]: 4800 nM; Activity [8]: Non-toxic; Activity [13]: Non-toxic; IC50 [9]: > 20000 nM
Clc1ccc(-c2c(Cn3cncn3)c(-c3nnc(C4(c5ccc(Cl)cc5)CC4)s3)nn2-c2ccc(Cl)cc2Cl)cc1 | 23.68 | – | – | – | –
CC1(c2nnc(-c3nn(-c4ccc(Cl)cc4Cl)c(-c4ccc(Br)cc4)c3Cn3cncn3)s2)CC1 | 23.68 | 2.91 | – | – | –
C[C@H](NC(=O)C(C)(C)Oc1ccc(C(F)(F)F)cn1)[C@@H](Cc1ccc(Cl)cc1)c1cccc(C#N)c1 [TARANABANT] | 29.55 | – | – | – | Activity [11]: 17.16%; Tmax [18]: 0.5 h; Cmax [19]: 360 ng/mL; Cmax [20]: 470 ng/mL; Clast [28]: 20 ng/mL; Clast [21]: 10 ng/mL; half-life [22]: 14.8 h; half-life [23]: 2.76 h; clearance [24]: 40.8 mL/min/kg; AUC [25]: 83.64 min/µg/mL; AUC [26]: 24.75 min/µg/mL; bioavailability [27]: 67.6%; BPR [29]: 52%; IC50 [5]: > 20000 nM; IC50 [6]: 930 nM; IC50 [12]: 14200 nM; Activity [8]: Non-toxic; Activity [13]: Non-toxic; IC50 [9]: 590 nM
FC(F)(F)C1(c2nnc(-c3nn(-c4ccc(Cl)cc4Cl)c(-c4ccc(Br)cc4)c3Cn3cncn3)s2)CCC1 | 23.68 | 3.27 | – | – | –
FC(F)(F)C1(c2nnc(-c3nn(-c4ccccc4Cl)c(-c4ccc(Cl)cc4)c3Cn3cncn3)s2)CC1 | 23.68 | 1.66 | – | – | –
FC(F)(F)c1ccccc1-n1nc(-c2nnc(C3(C(F)(F)F)CCC3)s2)c(Cn2cncn2)c1-c1ccc(Br)cc1 | – | 4.38 | 27.6 | 6.3 | –
FC(F)(F)C1(c2nnc(-c3nn(-c4ccccc4Cl)c(-c4ccc(Br)cc4)c3Cn3cncn3)s2)CCC1 | – | 0.848 | 73.6 | 87 | –
CC(C)(C)c1nnc(-c2nn(-c3ccc(Cl)cc3Cl)c(-c3ccc(Cl)cc3)c2Cn2cncn2)s1 | 23.68 | 1.73 | 1140 | 659 | –
FC(F)(F)C1(c2nnc(-c3nn(-c4ccccc4Cl)c(-c4ccc(Br)cc4)c3Cn3cncn3)s2)CC1 | – | 0.992 | 124 | 125 | –
Cc1ccc(C2(c3nnc(-c4nn(-c5ccc(Cl)cc5Cl)c(-c5ccc(Cl)cc5)c4Cn4cncn4)s3)CC2)cc1 | 23.68 | – | – | – | –
Clc1ccc(C2(c3nnc(-c4nn(-c5ccc(Cl)cc5Cl)c(-c5ccc(Br)cc5)c4Cn4cncn4)s3)CC2)cc1 | 23.68 | 0.877 | – | – | –
Clc1ccc(-n2nc(-c3nnc(C4(c5ccccc5)CC4)s3)c(Cn3cncn3)c2-c2ccc(Br)cc2)c(Cl)c1 | 23.68 | 2.23 | – | – | –
